Assay results published in patent US12029742B2, “Compositions and methods for the repair of myelin” (Duke University, priority 2014, dated 2024).

Columns and labels:
smoothened (SMO) = smoothened (SMO) (Homo sapiens, UniProt Q99835); conditions: fibroblast cell culture systems; recent studies; cited from earlier work
[1] = test system: Primary neural stem cells; test: In vitro oligodendrocyte differentiation from neural stem cells with breast milk-associated oxysterols (western blot); format: cell-based; conditions: 1 μm and 0.5 μm for five days, then 18 days differentiation; FIG. 8
Method: FIG. 8 is a western blot analysis. Stem cells were treated with oxysterols at doses indicated for 5 days then allowed to differentiate for 18 days. Primary neural stem cells were treated with 24-hydroxycholesterol and 25-hydroxycholesterol at 1 μm and 0.5 μm for five days, then allowed to differentiate for 18 days. Protein lysates were probed for oligodendrocyte-associated proteins CNPase and myelin basic protein (MBP).

[2] = test system: primary neural stem cells from neonatal mice; test: In vitro oligodendrocyte differentiation from neural stem cells; format: cell-based
Method: To determine the impact of oxysterol exposure on cellular differentiation, primary neural stem cells from neonatal mice were cultured in chamber slides. Cells were cultured in media alone (control) or 1 μM 20α-hydroxycholesterol for 7 days were then allowed to differentiate for 18 days. The differentiated cells were immunostained for markers of oligodendrocytes (Olig2 and CNPase) and visualized on a confocal microscope (FIG. 1A). […] Protein samples from control and 20α-hydroxycholesterol treated stem cell cultures were then fractionated and probed for markers of the oligodendrocyte lineage.

[3] = test system: olig2+ cells in the corpus callosum; test: In vivo oligodendrocyte differentiation in uninjured postnatal mice; conditions: uninjured five-day old mice, 100 mg/kg/day subcutaneously, 4 daily doses, analyzed five days after final injection; vs vehicle; p<0.02
Method: 20α-hydroxycholesterol was administered to uninjured postnatal mice during the normal myelination period to determine if oxysterol exposure increased the numbers of oligodendrocytes in vivo. Five-day old mice were administered 4 daily doses of vehicle control (n=4) or 20α-hydroxycholesterol (n=4) subcutaneously (100 mg/kg/day) and rested. Five days after the final injection, the mice were analyzed to quantify the number of olig2+ cells in the corpus callosum (FIG. 2A, FIG. 2B).

[4] = test system: olig2APC+ oligodendrocytes in the periventricular white matter of the corpus callosum; test: Perinatal mouse model of sepsis-associated myelin injury, stereological oligodendrocyte counting; format: in vivo, mice; conditions: sepsis injury on postnatal day 5; 100 mg/kg/day subcutaneous for 5 days from 24 hours after injury; stereology on postnatal day 25; p=0.001
Method: Quantification of oligodendrocyte cell numbers in the brain is critical to determining the impact of oxysterol therapy. Stereology is a useful research tool used by neuroscientists to provide accurate and unbiased estimates of cell numbers within specified brain regions. The number of oligodendrocyte numbers is determined using Stereo Investoigator™ software (MBF Bioscience) and a Zeiss Axiolmager M2 motorized fluorescent microscope with Apotome structured illumination. Perfusion fixed cryoprotected brains are frozen sectioned at […] and collected free-floating in phosphate buffered saline. […] Olig2+APC+ nucleated cells are then counted throughout the corpus callosum using a 63× oil objective lens.
Perinatal bowel perforation is a common complication of premature birth and is strongly linked to myelin injury and cerebral palsy. Using a perinatal mouse model of bowel perforation to induce sepsis-associated diffuse myelin injury on postnatal day 5, sepsis mice were determined to have a 60% reduction of mature oligodendrocytes at postnatal day 25 (FIG. 3).
To determine the efficacy of oxysterol therapy, the perinatal mouse model was employed to induce injury in mice on postnatal day 5. […] Coronal sections of the brains were analyzed using stereology on postnatal day 25 to determine the number of olig2APC+ oligodendrocytes in the periventricular white matter of the corpus callosum. […]

[5] = test system: sepsis-induced myelin injury; test: CatWalk gait analysis of mice after perinatal sepsis-induced myelin injury; format: in vivo; conditions: sepsis-injured mice
Text: The detection of differences in locomotor function is an important tool for the assessment of the severity of many conditions that affect the central nervous system (CNS), peripheral nervous system (PNS) and skeletal structures or muscles. A gait analysis system, such as the CatWalk™ XT, provides automatic and sensitive detection of a full range of parameters related to footprints and the dynamics of gait in animal testing.
The impact of oxysterol therapy on motor function in injured mice was also determined. Mice were subjected to sepsis-induced myelin injury on postnatal day 5. Twenty-four hours after injury, septic mice were divided into a vehicle control group and an oxysterol treated group. Treatment with 20α-hydroxycholesterol (100 mg/kg/day) was carried out daily for five days. At two months of age (adult), mice were evaluated on a CatWalk Gait Analysis System (Noldus Inc.). The gait analysis system identified multiple disturbances in the gait of untreated mature mice that survived perinatal sepsis. However, these gait disturbances were not present in mice treated with 20α-hydroxycholesterol.
Regularity Index: Regularity Index is a measure of interpaw coordination, and disturbances in regularity may be a result of cerebral injury. The Regularity Index was determined for uninjured control mice (FIG. 4A, FIG. 4D), sepsis mice (FIG. 4B, FIG. 4D), and septic mice treated with the oxysterol 20HC (FIG. 4C, FIG. 4D).
Stand and step cycle: Stand and step cycle are measures of the length of time the animal's paws are in contact with the platform as they walk. Increased stand and step cycle times are measures of gait instability.
Swing and swing speed: Swing and swing speed are measures of the animals “rocking” as they walk. While the swing was increased in perinatal sepsis survivors (FIG. 5C), the swing speed was decreased in sepsis survivors (FIG. 5D) consistant with an unsteady gait.

Sequence of smoothened (SMO) (Q99835 28-787): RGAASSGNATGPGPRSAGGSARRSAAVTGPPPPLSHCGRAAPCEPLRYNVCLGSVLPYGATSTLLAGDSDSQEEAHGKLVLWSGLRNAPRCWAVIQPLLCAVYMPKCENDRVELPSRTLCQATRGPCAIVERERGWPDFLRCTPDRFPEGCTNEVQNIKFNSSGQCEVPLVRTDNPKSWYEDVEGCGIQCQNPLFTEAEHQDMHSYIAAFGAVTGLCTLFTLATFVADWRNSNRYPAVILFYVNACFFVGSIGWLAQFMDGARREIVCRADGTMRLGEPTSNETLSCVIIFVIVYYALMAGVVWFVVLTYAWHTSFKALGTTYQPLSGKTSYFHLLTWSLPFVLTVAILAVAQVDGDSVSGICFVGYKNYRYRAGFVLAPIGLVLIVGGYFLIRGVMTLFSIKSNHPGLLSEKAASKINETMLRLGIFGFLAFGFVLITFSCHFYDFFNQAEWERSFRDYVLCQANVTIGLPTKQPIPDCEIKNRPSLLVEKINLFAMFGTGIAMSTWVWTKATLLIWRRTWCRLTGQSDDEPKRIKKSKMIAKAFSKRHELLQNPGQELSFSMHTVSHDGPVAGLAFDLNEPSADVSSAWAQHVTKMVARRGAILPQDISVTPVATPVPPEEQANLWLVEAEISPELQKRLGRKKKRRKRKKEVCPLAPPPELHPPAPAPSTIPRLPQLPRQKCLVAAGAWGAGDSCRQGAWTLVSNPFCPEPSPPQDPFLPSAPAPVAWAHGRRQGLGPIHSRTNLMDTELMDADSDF

**Q.** For `CC(C)CC[C@@H](O)[C@@H](C)[C@H]1CC[C@H]2[C@@H]3CC=C4C[C@@H](O)CC[C@]4(C)[C@H]3CC[C@]12C` [22α-hydroxycholesterol], which “SHH pathway activation via direct binding to smoothened (SMO)” value (smoothened (SMO)) is on record?
**A.** activate the SHH pathway

**Q.** Which “expression of oligodendrocyte-associated proteins CNPase and MBP (western blot)” value [1] does the source give for `C[C@H](CCCC(C)(C)O)[C@H]1CC[C@H]2[C@@H]3CC=C4C[C@@H](O)CC[C@]4(C)[C@H]3CC[C@]12C` [25-hydroxycholesterol] here?
**A.** induced expression

**Q.** Which “expression of oligodendrocyte-associated proteins CNPase and MBP (western blot)” value [1] does the source give for `CC(C)C(O)CC[C@@H](C)[C@H]1CC[C@H]2[C@@H]3CC=C4C[C@@H](O)CC[C@]4(C)[C@H]3CC[C@]12C` (some centres unmarked) [24-hydroxycholesterol] here?
**A.** induced expression

**Q.** With `CC(C)CCC[C@](C)(O)[C@H]1CC[C@H]2[C@@H]3CC=C4C[C@@H](O)CC[C@]4(C)[C@H]3CC[C@@]21C` [20α-hydroxycholesterol] as the compound, how does the “olig2+ CNPase+ cells (oligodendrocytes), cell counting” value ([2]; 1 μM for 7 days, then 18 days differentiation, vs media alone, p<0.02, FIG. 1C) read?
**A.** significant increase

**Q.** What about the “CNPase, Olig2 and myelin basic protein (MBP), Western blot” value ([2]; 1 μM treated stem cell cultures vs control, FIG. 1D) of the same compound?
**A.** increase

**Q.** What about the “olig2+ cell population in the corpus callosum” value [3] of the same compound?
**A.** significant increase

**Q.** What about the “amount of oligodendrocytes (olig2APC+) within the periventricular white matter” value [4] of the same compound?
**A.** significantly increased

**Q.** What about the “gait disturbances (CatWalk Gait Analysis System)” value ([5]; 100 mg/kg/day daily for five days, evaluated at two months of age) of the same compound?
**A.** not present

**Q.** And the “Regularity Index (interpaw coordination)” value ([5]; 100 mg/kg/day daily for five days, two months of age, FIG. 4D)?
**A.** completely reversed any observed deficits

**Q.** What about the “Swing and swing speed” value ([5]; FIG. 5C, 5D) of the same compound?
**A.** reversed all of these measures of gait disturbances

**Q.** And the “SHH pathway activation via direct binding to smoothened (SMO)” value (smoothened (SMO))?
**A.** activate the SHH pathway
